According to patent publication US4686220A, “Substituted 2-[b-substituted-amino)-ethylamino]-1,4-naphthalenediones for treating asthma, allergic diseases and inflammation in warm-blooded animals” (American Cyanamid Company, priority 1985, dated 1987):
Counter-ions that a name gives are not always drawn. Like-named read-outs stand apart in the source and are kept apart here.

What was measured:
[1] = target: T1, Neutrophil Lipoxygenase (Cavia porcellus, UniProt A0A286X958); assay: Inhibition of Neutrophil Lipoxygenase from Immunologically Stimulated Guinea Pig Neutrophiles (LTB4 and 5-HETE); type: cell-based; details: 10 μg/ml, 100 μM arachidonic acid and 20 μM A23187, the lower the percentage, the more active
T1 construct: endogenous in cells; host or cells: guinea pig peritoneal neutrophils
T1 sequence (A0A286X958 1-674): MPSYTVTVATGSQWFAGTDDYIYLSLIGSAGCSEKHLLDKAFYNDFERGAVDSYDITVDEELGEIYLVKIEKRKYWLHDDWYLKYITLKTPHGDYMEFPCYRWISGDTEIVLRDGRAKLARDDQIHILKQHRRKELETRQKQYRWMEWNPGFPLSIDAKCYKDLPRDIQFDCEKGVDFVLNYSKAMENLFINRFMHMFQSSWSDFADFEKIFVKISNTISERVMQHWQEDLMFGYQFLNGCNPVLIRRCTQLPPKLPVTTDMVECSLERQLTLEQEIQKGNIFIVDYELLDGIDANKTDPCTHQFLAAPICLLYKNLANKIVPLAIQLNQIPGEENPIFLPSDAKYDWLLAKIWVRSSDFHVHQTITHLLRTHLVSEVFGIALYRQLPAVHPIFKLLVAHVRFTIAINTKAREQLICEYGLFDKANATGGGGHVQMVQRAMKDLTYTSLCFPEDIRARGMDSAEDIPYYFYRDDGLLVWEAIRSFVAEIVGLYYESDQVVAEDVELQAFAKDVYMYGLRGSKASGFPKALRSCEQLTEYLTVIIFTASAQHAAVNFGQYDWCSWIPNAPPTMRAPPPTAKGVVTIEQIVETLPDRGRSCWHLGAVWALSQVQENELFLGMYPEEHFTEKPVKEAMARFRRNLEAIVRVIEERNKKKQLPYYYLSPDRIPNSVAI
Procedure: In this assay 3×10^7 peritoneal neutrophils derived from guinea pigs were incubated at 37° C. in Dulbeccos buffer containing 50 mM tris buffer (pH 7.4). Five minutes before the addition of 100 μM arachidonic acid and 20 μM calcium ionophore (A23187), control vehicle or the test compounds were added to the neutrophils at a concentration of 10 μg/ml. Three minutes after the addition of arachidonic acid and calcium ionophore the total lipid was partitioned into chloroform after adjusting the pH to 3 with citric acid and the addition of equal parts of methanol and chloroform. The 5-HETE and LTB4 were resolved by HPLC using a 5 μM, 4×25 cm octadecyl silica column (IBM Instruments) with 70-80% methanol in water adjusted to pH 3.0 with acetic acid. As the mobile phase was pumped at 1.0 ml/minute, LTB4 and 5-HETE were detected by absorbance at 270 and 236 nm, respectively. LTB4 and 5-HETE were quantitated by comparison with the control and the results were expressed as a percent of control.

[2] = tested on: Immunologically Stimulated Human Basophils; assay: Inhibition of Histamine Release from Immunologically Stimulated Human Basophils; type: cell-based; details: anti-IgE or antigen stimulated, 60 min, 37° C., read-out: ED50 (concentration which causes 50% inhibition of histamine release)
Procedure: The novel compounds of this invention have been tested by the procedure of Lichtenstein, L. M. and Osler, A. G., J. Exp. Med., 120, 507-530 (1964), which evaluates the ability of compounds to inhibit mediator (histamine) release from immunologically stimulated human basophils. 10X Concentrated Tris Buffer Dissolve 140.3 g of sodium chloride, 7.45 g of potassium chloride and 74.5 g of Trizma-Tris Pre-Set, Reagent Grade, pH 7.6, at 25° C. (Sigma Chemical Co.) in sufficient water to give a final volume of 2 liters. Human Albumin (Sigma Chemical Co.) (30 mg/ml) Calcium and Magnesium Stocks Made to 0.075M and 0.5M respectively, with calcium chloride dihydrate and magnesium chloride hexahydrate. Tris-A Buffer A 10 ml portion of 10X Tris Buffer and 1.0 ml of human albumin are diluted to 100 ml with water. Tris ACM Buffer A 10 ml portion of 10X Tris Buffer, 1.0 ml of human albumin, 0.8 ml of calcium stock and 0.2 ml of magnesium stock are diluted to 100 ml with water. Rabbit Antihuman IgE Behring Diagnostics (Generally used at 10 μg protein/ml final concentration.) House Dust Mite Extract (Dermatophagoides Farinae) Strength 1:100 (w:v) allergenic extract, Hollister-Stier Labs. Generally this is diluted 1:1000 to 1:10,000 (considering the vial as stock). Other Allergens Intradermal solutions or intramuscular preparations for hyposensitization, Hollister-Stier Labs. The final concentration used is on the order of 1 PNU/ml. Separation of Leukocytes from Human Blood and Challenge Eighty milliliters of blood is withdrawn from subjects with known histamine release to anti-IgE, ragweed antigen or other specific allergen, using four 20 ml heparinized tubes. This 80 ml of blood is mixed with 20 ml of saline containing 0.6 g of dextrose and 1.2 g of dextran. The blood is allowed to sediment at room temperature in two 50 ml polycarbonate centrifuge tubes until a sharp interface develops between the red cells and plasma (60-90 minutes). The plasma (top) layer from each tube is withdrawn by pipet and transferred to respective 50 ml polycarbonate tubes. The plasma is centrifuged for 8 minutes at 110×G at 4° C. The supernatant is carefully poured off as completely as possible and the cell button is resuspended in 2-3 ml of Tris-A buffer using a siliconized Pasteur pipet. The resuspension is accomplished by drawing the liquid gently in an out of the pipet, with the tip below the liquid, until an even suspension of cells is obtained. Sufficient Tris-A buffer is then added to bring the volume in the tube to about 45 ml and the tube is centrifuged at 110×G for 8 minutes at 4° C. The supernatant is poured off and the cell button is resuspended and centrifuged as described above. The supernatant is poured off and the cell button suspended in 2-3 ml of Tris-ACM buffer to make the final volume sufficient to allow addition to the reaction tubes. Reaction tubes containing anti-IgE or antigens, either alone or with test compound in a total volume of 0.2 ml are prepared and placed in a 37° C. bath. The cells are warmed to 37° C. and frequently swirled to ensure an even suspension, while 1.0 ml aliquots are added to each reaction tube. The tubes are then incubated for 60 minutes at 37° C., vortexing the tubes gently every 15 minutes to keep the cells evenly suspended. When the reaction is complete, the tubes are centrifuged at 4° C. for 10 minutes at 1500 rpm to sediment the cells. One ml aliquots of supernatant are transferred to 12 mm by 75 mm polyethylene tubes and 0.2 ml of 8% perchloric acid is added to each tube. Blanks and totals are included in each test. The blanks have cells and all reagents except antigen or anti-IgE. The totals contain 0.24 ml of 8% perchloric acid, one ml of cells and 0.2 ml of buffer. All samples are then centrifuged to remove the precipitate protein. Assay of Released Histamine by the Automated Fluorometric Method This automated method has been described by Siraganian, R. P., in Anal. Biochem., 57, 383 (1974) and J. Immunol. […]

Question: For CCOC(=O)N1CCN(C2=C(Cl)C(=O)c3ccccc3C2=O)CC1 [Example 1, 4-(3-Chloro-1,4-dioxo-2-naphthyl)-1-piperazinecarboxylic acid, ethyl ester], which “5-HETE, % of Control” value [1] is on record?
Answer: The value was 0 % of Control.

Question: And the “LTB4, % of Control” value [1]?
Answer: The value was 0 % of Control.

Question: And the IC50 ([2]; ethyl ester)?
Answer: Its IC50 is 5.5 µM.

Question: CN(CCN(C)C1=C(Cl)C(=O)c2ccccc2C1=O)Cc1ccccc1 [Example 2, 2-Chloro-3-[methyl[2-[methyl(phenylmethyl)amino]ethyl]amino]-1,4-naphthalenedione, hydrochloride] was tested. Which IC50 ([2]; Homo sapiens, 1 h) did it give?
Answer: The IC50 was 4 µM.

Question: What does the source list for O=C1C(Cl)=C(N2CCN(Cc3ccccc3)CC2)C(=O)c2ccccc21 [Example 5, 2-chloro-3-[4-(phenylmethyl)-1-piperazinyl]-1,4-naphthalenedione]?
Answer: 5-HETE, % of Control [1]: 0 % of Control; LTB4, % of Control [1]: 0 % of Control; IC50 ([2]; Homo sapiens, 1 h): 10.4 µM

Question: With O=C1C(Cl)=C(N2CCN(CC(=O)N3CCOCC3)CC2)C(=O)c2ccccc21 [Example 6, 4-[[4-(3-chloro-1,4-dihydro-1,4-dioxo-2-naphthalenyl)-1-piperazinyl]acetyl]morpholine] as the compound, how does the IC50 ([2]; Homo sapiens, 1 h) read?
Answer: Its IC50 is 20.6 µM.

Question: How did the IC50 ([2]; Homo sapiens, 1 h) turn out when O=C1C(Cl)=C(N2CCN(CC(=O)N3CCCC3)CC2)C(=O)c2ccccc21 [Example 7, 1-[[4-(3-chloro-1,4-dihydro-1,4-dioxo-2-naphthalenyl)-1-piperazinyl]acetyl]pyrrolidine] was run?
Answer: The IC50 was 14.9 µM.

Question: How did the remaining activity at 10 µg/mL ([1]; read-out: 5-HETE, % of Control) turn out when O=C1C(Cl)=C(N2CCN(c3ccccn3)CC2)C(=O)c2ccccc21 [Example 8, 2-chloro-3-[4-(2-pyridinyl)-1-piperazinyl]-1,4-naphthalenedione, hydrochloride] was run?
Answer: Its remaining activity at 10 µg/mL is 1.3%.

Question: And the remaining activity at 10 µg/mL ([1]; read-out: LTB4, % of Control)?
Answer: The remaining activity at 10 µg/mL was 6.1%.

Question: And the IC50 ([2]; Homo sapiens, 1 h)?
Answer: Its IC50 is 4.6 µM.

Question: For CN(CCNCc1nc2ccccc2s1)C1=C(Cl)C(=O)c2ccccc2C1=O [Example 9, 2-[[2-(2-benzothiazolylmethylamino)ethyl]methylamino]-3-chloro-1,4-naphthalenedione], which remaining activity at 10 µg/mL ([1]; read-out: 5-HETE, % of Control) is on record?
Answer: Its remaining activity at 10 µg/mL is 0.2%.

Question: What about the remaining activity at 10 µg/mL ([1]; read-out: LTB4, % of Control) of the same compound?
Answer: Its remaining activity at 10 µg/mL is 0%.

Question: And the IC50 ([2]; Homo sapiens, 1 h)?
Answer: The IC50 was 6.4 µM.

Question: How did the IC50 ([2]; Homo sapiens, 1 h) turn out when CC1CN(C2=C(Cl)C(=O)c3ccccc3C2=O)CCN1 (centres unmarked) [Example 14, 2-chloro-3-(3-methyl-1-piperazinyl)-1,4-naphthalenedione] was run?
Answer: The IC50 was 3 µM.

Question: Cl.O=C1C(Cl)=C(N2CCN(Cc3ccccc3)CC2)C(=O)c2ccccc21 [Example 15, 2-chloro-3-[4-(phenylmethyl)-1-piperazinyl]-1,4-naphthalenedione, hydrochloride] was tested. Which “5-HETE, % of Control” value [1] did it give?
Answer: The value was 35.6 % of Control.

Question: What about the “LTB4, % of Control” value [1] of the same compound?
Answer: The value was 28.3 % of Control.

Question: What about the IC50 ([2]; hydrochloride) of the same compound?
Answer: The IC50 was 13.4 µM.

Question: CCOC(=O)N1CCN(C2=C(Cl)C(=O)c3ccccc3C2=O)CC1.Cl [Example 16, 4-(3-chloro-1,4-dihydro-1,4-dioxo-2-naphthalenyl)-1-piperazinecarboxylic acid, ethyl ester, hydrochloride] was tested. Which “5-HETE, % of Control” value [1] did it give?
Answer: Its value is 6.9 % of Control.

Question: And the “LTB4, % of Control” value [1]?
Answer: Its value is 9.3 % of Control.

Question: What about the IC50 ([2]; e, hydrochloride) of the same compound?
Answer: Its IC50 is 1.5 µM.

Question: Which remaining activity at 10 µg/mL ([1]; read-out: 5-HETE, % of Control) does the source give for O=C1C(Cl)=C(N2CCN(c3nc4ccccc4s3)CC2)C(=O)c2ccccc21 [Example 17, 2-[4-(2-benzothiazolyl)-1-piperazinyl]-3-chloro-1,4-naphthalenedione, hydrochloride] here?
Answer: The remaining activity at 10 µg/mL was 23.1%.

Question: And the remaining activity at 10 µg/mL ([1]; read-out: LTB4, % of Control)?
Answer: The remaining activity at 10 µg/mL was 32.6%.

Question: What about the IC50 ([2]; Homo sapiens, 1 h) of the same compound?
Answer: The IC50 was 5.4 µM.

Question: How did the remaining activity at 10 µg/mL ([1]; read-out: 5-HETE, % of Control) turn out when CC(C)COC(=O)N1CCN(C2=C(Cl)C(=O)c3ccccc3C2=O)CC1 [Example 33, 4-(3-Chloro-1,4-dihydro-1,4-dioxo-2-naphthalenyl)-1-piperazinecarboxylic acid, 2-methylpropyl ester] was run?
Answer: The remaining activity at 10 µg/mL was 31.6%.

Question: And the remaining activity at 10 µg/mL ([1]; read-out: LTB4, % of Control)?
Answer: Its remaining activity at 10 µg/mL is 27.4%.

Question: And the IC50 ([2]; Homo sapiens, 1 h)?
Answer: The IC50 was 16.5 µM.

Question: For O=C1C(Cl)=C(N2CCN(C(=O)c3ccccc3Cl)CC2)C(=O)c2ccccc21 [Example 34, 1-(2-chlorobenzoyl)-4-(3-chloro-1,4-dihydro-1,4-dioxo-2-naphthalenyl)piperazine], which IC50 ([2]; Homo sapiens, 1 h) is on record?
Answer: The IC50 was 1.8 µM.
